Experiments:
Aβ42 = Aβ42 ELISA, NT2 stable cells; assay type: cell-based, human
Description: (5). To confirm the effect of THPI-244 on sAPPα levels in a neuronal cell line and by a tertiary assay, we exposed human Neuron-committed Teratocarcinoma cell line (NT2) stably expressing human APP751 to different concentrations of THPI-244 for 24 h and compared with that of Bryostatin, a classical activator of PKC known to stimulate sAPPα release. […] Levels of sAPPα were measured by ELISA using commercially available kit (cat #27734, IBL-America, Minneapolis, Minn., USA). […] Similar biphasic effect of Bryostatin was confirmed for Aβ42 also, measured again in NT2 stable cells by ELISA (cat #KHB3441, Life Technologies, Grand Island, N.Y., USA). Consistent with sAPPα, THPI-244 decreased Aβ42 levels dose-dependently starting from 50 nM (28%, p<0.05) to 2000 nM (64%, p<0.001) (n=4 independent experiments) (FIG. 1.7). Thus THPI-244 increased non-amyloidogenic processing of APP in NT2 cells.

TrkA = molecular target: T1, TrkA (Mus musculus, UniProt Q3UFB7); test: Mouse brain lysate immunoblot, TrkA; assay type: in vivo; conditions: 100 mg/kg i.p. for 5 days
T1 construct: from tissue; host or cells: mouse brain lysate
Description: FIGS. 9.2A and B illustrate that THPI-244 increases TrkA and sAPPα in the mouse brain. FIG. 9.2A illustrates that THPI-244 was administered to mice by i.p. injections at 100 mg/kg body weight for 5 days and the brain lysates were subjected to immunoblots. Specific antibodies were used to detect TrkA and sAPPα. […] Data are mean±SEM, n=3*, p<0.05, ***, p<0.001.

P75NTR = test: Signal transduction analysis, P75NTR; assay type: cell-based, human; conditions: NT2 cells
Source text: (2). THPI-244 increases sAPPα by a novel mechanism of upregulating TrkA, a neurotrophic receptor. Therefore, in addition to increasing neuroprotective sAPPα and decreasing toxic Aβ, THPI-244 mediated increased TrkA protein levels are expected to provide neurotrophic support. Following the validation of the effect of THPI-244 in increasing sAPPα levels in CHO cells, NT2 cells, AD fibroblasts and human primary neurons, we were interested in identifying the molecular target of THPI-244 for unraveling the molecular mechanism by which it increases sAPPα which in turn can predict toxicity profile and whether to pursue long-term studies. Increased protein levels of both native and phosphorylated form of TrkA in NT2 cells and mouse brains by THPI-244 validated TrkA as the target.

T1 sequence (Q3UFB7 34-799): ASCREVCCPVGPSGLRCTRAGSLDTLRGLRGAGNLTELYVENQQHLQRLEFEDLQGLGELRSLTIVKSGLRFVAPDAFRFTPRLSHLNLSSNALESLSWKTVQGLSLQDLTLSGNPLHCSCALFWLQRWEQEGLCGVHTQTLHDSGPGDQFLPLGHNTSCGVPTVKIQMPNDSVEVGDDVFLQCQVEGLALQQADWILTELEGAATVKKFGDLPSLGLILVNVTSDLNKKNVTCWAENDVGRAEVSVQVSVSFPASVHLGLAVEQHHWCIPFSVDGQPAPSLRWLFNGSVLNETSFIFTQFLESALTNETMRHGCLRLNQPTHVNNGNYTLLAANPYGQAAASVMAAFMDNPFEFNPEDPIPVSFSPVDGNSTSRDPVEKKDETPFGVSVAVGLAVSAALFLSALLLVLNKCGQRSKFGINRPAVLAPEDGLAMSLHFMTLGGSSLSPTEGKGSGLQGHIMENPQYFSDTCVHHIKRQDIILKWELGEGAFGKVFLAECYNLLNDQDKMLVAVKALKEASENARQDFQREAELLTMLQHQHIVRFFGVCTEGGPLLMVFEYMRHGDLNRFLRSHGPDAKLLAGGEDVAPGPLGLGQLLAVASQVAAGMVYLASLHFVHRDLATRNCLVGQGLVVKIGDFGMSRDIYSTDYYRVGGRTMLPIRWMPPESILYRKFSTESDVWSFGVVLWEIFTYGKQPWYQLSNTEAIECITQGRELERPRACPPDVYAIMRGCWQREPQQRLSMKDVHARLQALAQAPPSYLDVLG

O=C(Cc1ccccc1)N[C@H](CNc1nc(CN2CCN(C(=O)Cc3ccccc3)CC2)cs1)c1ccccc1 [THPI-244] was tested, and the “lowest concentration with significant decrease of Aβ42” value (Aβ42) was 50 nM, the “increase of TrkA in brain” value (TrkA) was 78% and the “effect on P75NTR” value (P75NTR) was “did not affect”.

From patent publication US9994536B2, “Compounds and methods of treating neurological disorders” (TORREY PINES INSTITUTE FOR MOLECULAR STUDIES, priority 2014, dated 2018)
